The subject of one data set is Ramos cells. Put plainly: Apoptosis assay, AnnexinV-FITC/propidium iodide FCM. Type of data set: cell-based, Human. The conditions noted are these: treatment for 18 hours. How it is done:
Figure 1 The chemical structure of SKLB-850 and its anti-tumor effects in vitro (A) The chemical structure of SKLB-850. (B and C) Apoptosis of Ramos cells induced by SKLB-850. Cells were treated by vehicle, R788 or indicated concentrations of compounds. After 18 hours, Cell were harvested and stained with AnnexinV-FITC and propidium iodide, then the apoptosis cells were analyzed by FCM. (D and E) Apoptosis of HBL-1 cells induced by SKLB-850. Cells were treated by vehicle, R788 or indicated concentrations of compounds. After 24 hours, Cell were harvested and stained with AnnexinV-FITC and propidium iodide, then the apoptosis cells were analyzed by FCM. […] Columns, mean; bars, SD. ^##P<0.01, or ^#P<0.05, SKLB-850 group versus vehicle group. […]
The ability of SKLB-850 to induce apoptosis of BCL cells was analyzed by FCM. […]
Flow cytometry (FCM) assays were performed to investigate the apoptosis of Ramos and HBL-1 cells induced by SKLB-850. […] Cell apoptosis was analyzed with a flow cytometer (BD FACSCalibur, BD, USA).

The subject of the next data set is Ramos xenograft. Description: Ramos xenograft mouse model. The format is in vivo, NOD/SCID mice. The procedure:
The in vivo anti-BCL effects of SKLB-850 were investigated in the Ramos and HBL xenograft mouse models with R788 being taken as a positive control. The animals were treated orally once daily for 21 days (Ramos model) or 36 days (HBL-1 model).
All animal studies were conducted according to the guidelines of the Animal Care and Use Committee of Sichuan University (Permit Number: 20121205, Chengdu, Sichuan, China). Ramos and HBL-1 tumor cells were established by subcutaneously injecting 1×10^7 cells (100μL) into the hind flank region of 7–8 week old female NOD/SCID mice (ICR, NOD/SCID). When tumors reached a volume of ∼200 mm^3, mice were randomly divided into different groups (6 per group), and SKLB-850 (40 mg/kg, 20mg/kg) or vehicle (5% DMSO, 25% PEG400, and 70% waters) were given once daily by oral gavage. Tumor growth and body weight were measured every three days or every day during the treatment. Tumor volumes were calculated using the formula as follow: tumor volume (mm^3) = 0.5× length (mm) × width (mm) ^2. Studies were typically terminated when tumors in vehicle treated animals reached an average size of 2,000 mm^3. Solid tumors were removed and processed for immunohistochemical analysis and terminal deoxynucleotidyl transferase-mediated dUTP nick end labeling (TUNEL) assay.

Data set [1] in a line: Preliminary toxicity evaluation in treated mice. The format is in vivo. The procedure:
A preliminary toxicity evaluation to SKLB-850 was also carried out. […] Besides, toxic pathologic changes in liver, lung, kidney, spleen, and heart were not detected by microscopic examination (Figure 5C).
To investigate potential side effects or toxicity on mice during the treatment, anorexia skin ulceration, weight loss, diarrhea, and toxic death were observed continuously for relevant indexes. The tissues of heart, liver, spleen, lung, and kidney were stained with hematoxylin and eosin (H&E). ALT, AST, BUN and CREA in serum were measured by the National Chengdu Center for Safety Evaluation of Traditional Chinese Medicine using commercially available kits.

In the case of `COc1cc(Nc2ncc(F)c(Nc3ccc4c(n3)N(COP(=O)(O)O)C(=O)C(C)(C)O4)n2)cc(OC)c1OC` [R788, reference compound], in the data set with Ramos cells, the “percentages of apoptotic cells (in words)” value is “induced apoptosis but obviously much weaker”. Further, the “anti-tumor effect (in words)” value in the data set on Ramos xenograft (positive control, orally once daily) was “some anti-tumor effect”.
Regarding `CN1CCN(c2ccc(Nc3ncc(F)c(Nc4ccc(Cl)cc4C(N)=O)n3)cc2)CC1` [SKLB-850, 5-chloro-2-((5-fluoro-2-((4-(4-methylpiperazin-1-yl)phenyl)amino)pyrimidin-4-yl)amino) benzamide], the “toxic pathologic changes in liver, lung, kidney, spleen, and heart (H&E, in words)” value in data set [1] (microscopic examination) was “not detected”. Besides, the “mouse body weight (in words)” value in data set [1] (treated groups, monitored once every three days) is given as “no significant differences in weights”. For the same compound, in data set [1] (treated mice), the “levels of ALT, AST, BUN, and CREA of serum (in words)” value was “no obvious changes”. Further, the “percentages of apoptotic cells (in words)” value in the data set on Ramos cells is reported as “dose-dependently increased”. For the same compound, the tumor inhibition rate is given as 73.65% ± 21.22% in the data set on Ramos xenograft (20 mg/kg orally once daily for 21 days) and 78.82% ± 9.35% in the data set on Ramos xenograft (40 mg/kg orally once daily for 21 days).

The values are drawn from article PMC5762338, “A novel orally available Syk/Src/Jak2 inhibitor, SKLB-850, showed potent anti-tumor activities in B cell lymphoma (BCL) models” (Oncotarget, 2017).
